Source: patent US9657081B2, “Inhibiting peptides derived from triggering receptor expressed on myeloid cells-1 (TREM-1) TREM-like transcript 1 (TLT-1) for treatment of cardiovascular diseases” (INSERM (Institut National de la Sante et de la Recherche …, priority 2013, dated 2017)

Experiments:
TREM-1 [1] = assay: Rat model of myocardial ischemia-reperfusion, physiologic parameters and micro-TEP imaging; format: in vivo
Description: Adult male Wistar rats (360-380 g) were used. All rats were anaesthetized with ketamine (100 mg/kg, intramuscularly) and mechanically ventilated. After a left thoracotomy, the left coronary artery was identified and ligated with a 6-0 prolene surgical suture. LAD occlusion was confirmed by a change in myocardial color from red to white in the ischemia area (Left ventricle). The chest was closed and the skin was sutured with 6-0 silk. The animals returned to their cage where they were supervised until their complete recovery. The postoperative mortality rate of all rats was 20%.
After surgical LAD occlusion, importance of ischemic area was evaluated by micro-TEP imaging. Animals were then randomized to receive peptide (5 mg/kg) every 24 h for 5 days or placebo (vehicle).
A further evaluation was performed at 6 weeks by micro-TEP imaging and conductance catheter (Millar) in order to study the treatment effect on myocardial remodeling and myocardial function.
Animals received same surgery than in permanent ischemia, but with reperfusion of ischemic area by release of the LAD ligation after 60 minutes of ischemia. The same protocol as described above was then applied.
In all animals, approximately 70 MBq of ^18F-FDG (in a 0.3-0.5 ml volume) was injected intravenously and under a short anaesthesia (1.5-2.5% of isoflurane inhalation) 60 min prior to initiating PET recording. Recording was acquired in list mode under continuous anaesthesia by isoflurane, using a dedicated small animal PET system (Inveon, Siemens, Knoxville, Tenn., USA). The animals were positioned in the prone position and placed on a heating pad to maintain a body temperature within the normal range. The animals were connected to a standard ECG monitor by three electrodes placed on the inner surfaces of limb extremities. Recording times were 20 min for 18F emission and 6 min for 57Co transmission. The coincidence timing window was set to 3.4 ns and the energy window between 350 and 650 keV. Images were reconstructed in 16 cardiac intervals, providing a temporal resolution of 11-15 ms for common heart rate values. Under these conditions, the axial spatial resolution was less than 1.5 mm. In addition, on LV rat phantoms obtained by a stereolithography process, a precise determination of the actual cavity volumes was provided by FDG PET images above the level of 100 μl corresponding to the lower limit for the LV endsystolic volume in adult.
To investigate the role of TREM-1- and TLT-1-derived peptides in a more relevant model of MI, we performed a transient coronary artery ligation (ischemia-reperfusion model: IR) in rats. After randomisation, animals were then imaged under anaesthesia (micro-TEP) and administered with TREM-1- and TLT-1-derived peptides (3 mg/kg daily for 5 days i.p.) or LR12-scrambled peptide. Imaging was then repeated at 6 weeks before we studied cardiac function by using a conductance catheter (Millar).

TREM-1 [2] = target: T1, TREM-1 (Sus scrofa, UniProt Q6TYI6); assay: Mini-pig model of sepsis (peritonitis): sepsis-induced hypotension and cardiac dysfunction; format: in vivo, mini-pig (Sus scrofa domestica)
T1 construct: endogenous in cells; host or cells: living mini-pigs (in vivo)
T1 sequence (Q6TYI6 21-238): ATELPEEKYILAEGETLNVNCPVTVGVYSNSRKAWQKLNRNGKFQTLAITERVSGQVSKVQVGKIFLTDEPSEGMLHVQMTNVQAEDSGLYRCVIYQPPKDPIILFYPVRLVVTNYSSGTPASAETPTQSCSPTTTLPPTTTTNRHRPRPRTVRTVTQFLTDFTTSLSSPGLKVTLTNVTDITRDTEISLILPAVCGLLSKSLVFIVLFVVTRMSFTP
Description: Adult male mini-pigs (Sus scrofa domestica, Vietnamese pot-belied mini-pigs, 30-40 kg) were purchased from Elevage Ferry (Vosges, France). Before surgery, animals were fasted overnight with free access to water. Preanesthesia was performed through intramuscular administration of ketamine (10 mg/kg) and midazolam (0.1 mg/kg). Anesthesia was induced and maintained with intravenous pentobarbital (initial bolus: 10 mg/kg, and continuous administration 6-8 mg/kg/h), intermittent sufentanyl (10 μg), and pancuronium (4 mg) if necessary. Animals were mechanically ventilated (tidal volume 8 ml/kg, PEEP 5 cm H2O, FiO2 0.21, respiratory rate 14-16 breaths/min adjusted to maintain normocapnia). Left jugular vein was exposed and a triple-lumen line was inserted. Right jugular vein was also catheterized and a Swan-Ganz catheter was positioned allowing the continuous recording of cardiac output, SvO2, and right atria and pulmonary arterial pressures. A right carotid arterial catheter was inserted for continuous measurement of arterial pressure. A catheter in the bladder allowed urine collection.
After instrumentation, a midline laparotomy was performed to collect feces from the left colon: 1.5 g/kg were suspended in 200 mL of 0.9% NaCl and incubated at 38° C. for 2 hours. After surgery, a tube was left in place for the peritonitis induction and ascites drainage.
After surgery, animals were allowed to recover for 2 hours before baseline measurements (defined as ‘H0’). Normal saline was continuously administered (10 mL/kg/h) throughout the study. Body temperature was kept constant (±1° C.) using heating pads or cooling.
After baseline data collection (H0), peritonitis was induced by administration of autologous feces through the abdominal tube which was subsequently maintained clamped. After 2 hours (H2), animals were randomized to receive LR12 (LR12 group, n=6) or the vehicle (normal saline) alone (Control group, n=5). A bolus of 5 mg/kg (in 60 mL) was intravenously delivered over 30 minutes, then a 1 mg/kg/h (15 mL/h) infusion was started and lasted throughout the study period.
Animal care was then provided by an experienced intensive care physician with strict adhesion to the following guidelines throughout the study period:
i) Hemodynamic targets: the main objective was to maintain mean arterial pressure (MAP) above 85 mmHg. To achieve this goal and in addition to the maintenance 0.9% NaCl administration (7 mL/kg/h), hydroxyethyl starch (up to 20 mL/kg for the entire study period) (HES 130/0.4, Voluven®, Fresenius) was allowed provided that central venous pressure (CVP) and pulmonary artery occlusion pressure (PAOP) was <18 mmHg. When hydroxyethyl starch maximal volume was reached, a continuous infusion of norepinephrine was started up to 10 μg/kg/min.
Hemodynamic parameters were continuously monitored including MAP, mean pulmonary artery pressure (MPAP), right atrial pressure (RAP), cardiac output (CO), cardiac index (CI), and SvO2. Systemic oxygen delivery (DO2) and systemic oxygen uptake (VO2) were calculated by the Swan-Ganz monitor. Cardiac Power Index (W/m^2) was calculated as MAP×CI/451 (24).

Sequence: LQEEDAGEYGCM (listed as Homo sapiens) [TLT1-LR12]
- Body weight (TREM-1 [1]; Baseline): 391 ± 9 g
- EDV (TREM-1 [1]; Baseline): 511 ± 55 µL
- EF (TREM-1 [1]; Baseline): 47 ± 6%
- ESV (TREM-1 [1]; Baseline): 251 ± 75 µL
- Heart rate (TREM-1 [1]; Baseline): 343 ± 43 bpm
- MI Areas (TREM-1 [1]; Baseline): 41 ± 20 % of LV
- Systolic blood pressure (TREM-1 [1]; Baseline): 134 ± 2 mmHg
- Body weight (TREM-1 [1]; Six weeks): 439 ± 12 g
- Body weight, difference with baseline (TREM-1 [1]; Six weeks): 48 ± 10 g
- EDV (TREM-1 [1]; Six weeks): 620 ± 34 µL
- EDV, difference with baseline (TREM-1 [1]; Six weeks): 109 ± 55 µL
- EF (TREM-1 [1]; Six weeks): 56 ± 5%
- EF, difference with baseline (TREM-1 [1]; Six weeks): 9 ± 7%
- ESV (TREM-1 [1]; Six weeks): 273 ± 47 µL
- ESV, difference with baseline (TREM-1 [1]; Six weeks): 22 ± 18 µL
- Heart rate (TREM-1 [1]; Six weeks): 370 ± 25 bpm
- Heart rate, difference with baseline (TREM-1 [1]; Six weeks): 27 ± 22 bpm
- MI Areas (TREM-1 [1]; Six weeks): 3 ± 9 % of LV
- MI Areas, difference with baseline (TREM-1 [1]; Six weeks): −38 ± 8 % of LV
- Systolic blood pressure (TREM-1 [1]; Six weeks): 167 ± 6 mmHg
- Systolic blood pressure, difference with baseline (TREM-1 [1]; Six weeks): 33 ± 6 mmHg
- animals in which norepinephrine was started by H12 to maintain MAP >85 mmHg (TREM-1 [2]; mini-pig peritonitis): 1/6
- volume rescucitation (TREM-1 [2]; mini-pig peritonitis, 5 mg/kg bolus then 1 mg/kg/h i.v.): 6500 ± 800 mL
- progressive lactic acidosis (TREM-1 [2]; p=0.0005): largely attenuated
- cardiac failure (cardiac index, cardiac power index, SvO2, DO2) (TREM-1 [2]; versus controls): significant beneficial effects in attenuating cardiac failure
- norepinephrine infusion rate needed to maintain blood pressure (TREM-1 [2]; versus controls): significantly lower
